The inhibition is the change of the read-out against control, counted positive when it falls.

Drawing on ChEMBL document CHEMBL5653615 (J Biol Chem, 2013), this text covers inhibition for two compounds.

Experiment [1] addresses Serine/threonine-protein kinase B-raf (Homo sapiens) (UniProt P15056). As to the kind of experiment: Inhibition of human BRAF at 1.82 nM by HotSpot assay relative to control.
The target of experiment [2] is Homeodomain-interacting protein kinase 3 (Homo sapiens) (UniProt Q9H422). As to the kind of experiment: Inhibition of human HIPK3 at 1.82 nM by HotSpot assay relative to control.
Experiment [3] has as its target Leucine-rich repeat serine/threonine-protein kinase 2 (Homo sapiens) (UniProt Q5S007). As to the kind of experiment: Inhibition of human LRRK2 at 1.82 nM by HotSpot assay relative to control.
For experiment [4], the target named is Mitogen-activated protein kinase kinase kinase 9 (Homo sapiens) (UniProt P80192). As to the kind of experiment: Inhibition of human MAP3K9 at 1.82 nM by HotSpot assay relative to control.
Experiment [5] deals with T1, 3-phosphoinositide-dependent protein kinase 1 (Homo sapiens) (UniProt O15530).
T1 sequence (whole entry): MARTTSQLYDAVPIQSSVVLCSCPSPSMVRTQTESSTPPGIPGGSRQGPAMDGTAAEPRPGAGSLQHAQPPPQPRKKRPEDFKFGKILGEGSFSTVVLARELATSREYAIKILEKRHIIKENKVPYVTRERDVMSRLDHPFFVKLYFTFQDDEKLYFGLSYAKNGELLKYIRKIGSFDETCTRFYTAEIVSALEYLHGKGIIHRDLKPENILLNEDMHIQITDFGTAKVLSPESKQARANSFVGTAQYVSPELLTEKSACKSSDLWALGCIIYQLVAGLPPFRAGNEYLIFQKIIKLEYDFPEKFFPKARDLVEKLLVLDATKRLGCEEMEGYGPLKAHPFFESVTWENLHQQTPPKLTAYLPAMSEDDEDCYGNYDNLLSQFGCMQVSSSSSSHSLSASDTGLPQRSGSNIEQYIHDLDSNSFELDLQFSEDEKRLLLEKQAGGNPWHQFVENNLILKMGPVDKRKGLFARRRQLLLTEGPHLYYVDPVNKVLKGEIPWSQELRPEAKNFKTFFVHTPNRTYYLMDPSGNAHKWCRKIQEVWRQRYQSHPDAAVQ
As to the kind of experiment: Inhibition of human PDPK1 at 1.82 nM by HotSpot assay relative to control.

For experiment [6], the target named is Activin receptor type-1-like (Homo sapiens) (UniProt P37023). As to the kind of experiment: Inhibition of human ALK1 at 18.6 nM by HotSpot assay relative to control.
The target of experiment [7] is T2, TGF-beta receptor type-1 (Homo sapiens) (UniProt P36897).
T2 sequence (whole entry): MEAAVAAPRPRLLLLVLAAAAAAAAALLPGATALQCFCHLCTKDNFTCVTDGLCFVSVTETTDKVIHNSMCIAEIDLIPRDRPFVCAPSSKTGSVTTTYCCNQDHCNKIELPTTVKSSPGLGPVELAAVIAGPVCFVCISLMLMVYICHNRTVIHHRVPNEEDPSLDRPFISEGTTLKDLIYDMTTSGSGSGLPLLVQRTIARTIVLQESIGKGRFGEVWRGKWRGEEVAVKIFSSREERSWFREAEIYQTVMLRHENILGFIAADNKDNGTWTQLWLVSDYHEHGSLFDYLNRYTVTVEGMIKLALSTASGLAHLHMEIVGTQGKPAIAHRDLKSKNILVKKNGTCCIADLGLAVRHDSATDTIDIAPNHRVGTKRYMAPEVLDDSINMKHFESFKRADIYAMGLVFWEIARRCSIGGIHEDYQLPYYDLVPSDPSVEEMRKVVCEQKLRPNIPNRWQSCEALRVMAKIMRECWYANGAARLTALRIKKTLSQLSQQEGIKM
As to the kind of experiment: Inhibition of human ALK5 at 18.6 nM by HotSpot assay relative to control.

Experiment [8] addresses T3, Cytoplasmic tyrosine-protein kinase BMX (Homo sapiens) (UniProt P51813).
T3 sequence (whole entry): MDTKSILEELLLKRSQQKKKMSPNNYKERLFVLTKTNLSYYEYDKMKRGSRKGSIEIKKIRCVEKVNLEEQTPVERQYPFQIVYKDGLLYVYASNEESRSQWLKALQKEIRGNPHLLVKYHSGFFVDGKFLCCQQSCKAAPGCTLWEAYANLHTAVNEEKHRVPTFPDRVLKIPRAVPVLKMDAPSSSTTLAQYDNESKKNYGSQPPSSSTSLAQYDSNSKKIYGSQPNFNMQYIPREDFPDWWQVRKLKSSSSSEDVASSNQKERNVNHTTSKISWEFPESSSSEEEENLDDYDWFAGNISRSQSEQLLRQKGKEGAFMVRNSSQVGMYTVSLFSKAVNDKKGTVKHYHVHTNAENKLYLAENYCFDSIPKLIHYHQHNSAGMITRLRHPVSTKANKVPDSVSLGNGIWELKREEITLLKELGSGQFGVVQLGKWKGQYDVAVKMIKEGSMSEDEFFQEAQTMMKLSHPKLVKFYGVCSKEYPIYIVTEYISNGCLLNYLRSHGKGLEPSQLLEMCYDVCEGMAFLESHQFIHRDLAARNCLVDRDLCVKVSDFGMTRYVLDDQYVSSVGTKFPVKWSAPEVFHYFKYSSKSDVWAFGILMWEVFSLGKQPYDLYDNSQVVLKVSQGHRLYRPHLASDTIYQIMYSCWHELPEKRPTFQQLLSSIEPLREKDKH
Nature of the experiment: Inhibition of human BMX at 18.6 nM by HotSpot assay relative to control.

Experiment [9] addresses Casein kinase I isoform gamma-2 (Homo sapiens) (UniProt P78368). Nature of the experiment: Inhibition of human CK1g2 at 18.6 nM by HotSpot assay relative to control.
The target in experiment [10] is T4, Mitogen-activated protein kinase 12 (Homo sapiens) (UniProt P53778).
T4 sequence (whole entry): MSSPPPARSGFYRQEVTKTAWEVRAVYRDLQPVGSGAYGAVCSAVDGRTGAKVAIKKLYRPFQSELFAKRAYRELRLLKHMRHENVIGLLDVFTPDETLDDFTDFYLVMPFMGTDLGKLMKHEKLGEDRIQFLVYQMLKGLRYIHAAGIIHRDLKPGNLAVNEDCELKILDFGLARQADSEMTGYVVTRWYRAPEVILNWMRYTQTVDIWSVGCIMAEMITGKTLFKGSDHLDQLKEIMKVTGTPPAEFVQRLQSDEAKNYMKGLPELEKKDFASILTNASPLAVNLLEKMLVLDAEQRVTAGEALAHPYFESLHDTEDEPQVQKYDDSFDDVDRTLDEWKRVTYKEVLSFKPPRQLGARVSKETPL
As to the kind of experiment: Inhibition of human P38g at 18.6 nM by HotSpot assay relative to control.

In experiment [11] the target is Mitogen-activated protein kinase kinase kinase 7 (Homo sapiens) (UniProt O43318). As to the kind of experiment: Inhibition of human TAK1 at 18.6 nM by HotSpot assay relative to control.

Each structure is given as a SMILES string.

Leucine-rich repeat serine/threonine-protein kinase 2 (Homo sapiens), sequence (Q5S007 whole entry): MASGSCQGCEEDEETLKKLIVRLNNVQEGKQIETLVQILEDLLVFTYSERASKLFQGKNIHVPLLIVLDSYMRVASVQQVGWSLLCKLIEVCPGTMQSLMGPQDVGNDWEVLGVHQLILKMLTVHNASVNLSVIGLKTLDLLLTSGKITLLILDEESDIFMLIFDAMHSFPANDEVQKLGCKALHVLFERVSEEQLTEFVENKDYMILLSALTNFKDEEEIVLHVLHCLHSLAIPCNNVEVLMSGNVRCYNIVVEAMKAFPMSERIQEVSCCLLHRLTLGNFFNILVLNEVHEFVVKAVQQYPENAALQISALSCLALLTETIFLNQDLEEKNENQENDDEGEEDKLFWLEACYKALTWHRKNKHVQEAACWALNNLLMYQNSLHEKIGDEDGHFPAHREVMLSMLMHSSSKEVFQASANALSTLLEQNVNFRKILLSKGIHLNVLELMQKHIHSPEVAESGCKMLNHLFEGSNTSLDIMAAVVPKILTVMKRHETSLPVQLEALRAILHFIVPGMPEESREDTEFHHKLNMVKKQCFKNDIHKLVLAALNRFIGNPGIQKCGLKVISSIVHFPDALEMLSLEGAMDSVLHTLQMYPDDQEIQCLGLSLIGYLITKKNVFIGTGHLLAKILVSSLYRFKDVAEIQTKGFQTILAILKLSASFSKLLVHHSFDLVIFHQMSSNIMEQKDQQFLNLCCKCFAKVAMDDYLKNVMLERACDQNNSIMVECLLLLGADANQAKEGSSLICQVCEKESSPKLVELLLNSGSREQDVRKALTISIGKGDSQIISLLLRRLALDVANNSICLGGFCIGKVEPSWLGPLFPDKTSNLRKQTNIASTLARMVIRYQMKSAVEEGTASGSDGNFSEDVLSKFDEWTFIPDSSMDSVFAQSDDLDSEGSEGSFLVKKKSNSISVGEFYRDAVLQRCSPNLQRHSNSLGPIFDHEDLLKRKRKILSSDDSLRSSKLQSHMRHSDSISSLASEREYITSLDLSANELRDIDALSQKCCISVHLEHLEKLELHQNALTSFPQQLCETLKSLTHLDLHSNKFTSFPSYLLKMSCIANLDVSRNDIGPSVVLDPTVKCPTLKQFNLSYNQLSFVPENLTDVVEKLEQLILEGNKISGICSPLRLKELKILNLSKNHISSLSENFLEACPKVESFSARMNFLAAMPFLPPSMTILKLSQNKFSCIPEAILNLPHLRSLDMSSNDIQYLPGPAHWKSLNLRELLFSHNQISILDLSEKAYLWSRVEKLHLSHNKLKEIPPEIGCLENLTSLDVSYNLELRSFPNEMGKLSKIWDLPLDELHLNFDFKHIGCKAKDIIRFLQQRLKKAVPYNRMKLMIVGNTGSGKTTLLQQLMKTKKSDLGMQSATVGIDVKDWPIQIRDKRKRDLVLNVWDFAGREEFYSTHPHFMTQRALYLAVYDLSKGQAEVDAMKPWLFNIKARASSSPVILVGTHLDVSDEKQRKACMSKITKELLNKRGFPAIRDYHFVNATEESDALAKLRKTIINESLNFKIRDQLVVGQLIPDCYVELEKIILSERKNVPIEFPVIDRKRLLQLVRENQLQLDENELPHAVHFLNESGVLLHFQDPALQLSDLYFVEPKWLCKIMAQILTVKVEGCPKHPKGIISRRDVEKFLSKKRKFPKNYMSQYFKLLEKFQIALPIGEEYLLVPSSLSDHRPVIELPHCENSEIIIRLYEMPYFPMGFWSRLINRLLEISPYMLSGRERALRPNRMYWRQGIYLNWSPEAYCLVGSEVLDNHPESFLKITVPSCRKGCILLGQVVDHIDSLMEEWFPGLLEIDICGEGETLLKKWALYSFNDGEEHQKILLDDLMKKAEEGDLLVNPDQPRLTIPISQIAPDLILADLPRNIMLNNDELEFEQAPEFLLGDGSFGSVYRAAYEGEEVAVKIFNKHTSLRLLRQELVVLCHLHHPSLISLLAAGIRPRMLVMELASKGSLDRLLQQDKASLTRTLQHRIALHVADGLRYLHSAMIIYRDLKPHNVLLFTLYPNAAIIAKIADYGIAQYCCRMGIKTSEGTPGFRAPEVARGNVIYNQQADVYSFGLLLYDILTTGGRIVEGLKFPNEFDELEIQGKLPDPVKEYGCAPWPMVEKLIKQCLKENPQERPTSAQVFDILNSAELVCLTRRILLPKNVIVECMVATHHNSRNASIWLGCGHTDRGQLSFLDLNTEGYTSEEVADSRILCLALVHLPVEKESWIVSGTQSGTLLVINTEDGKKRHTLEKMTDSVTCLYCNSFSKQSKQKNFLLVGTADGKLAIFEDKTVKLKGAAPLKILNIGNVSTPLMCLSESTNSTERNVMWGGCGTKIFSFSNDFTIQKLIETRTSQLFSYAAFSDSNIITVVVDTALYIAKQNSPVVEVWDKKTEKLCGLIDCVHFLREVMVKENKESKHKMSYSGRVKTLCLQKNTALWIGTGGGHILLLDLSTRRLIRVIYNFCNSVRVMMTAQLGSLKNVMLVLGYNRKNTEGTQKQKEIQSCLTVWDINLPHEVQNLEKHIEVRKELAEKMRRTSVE
Activin receptor type-1-like (Homo sapiens), sequence (P37023 whole entry): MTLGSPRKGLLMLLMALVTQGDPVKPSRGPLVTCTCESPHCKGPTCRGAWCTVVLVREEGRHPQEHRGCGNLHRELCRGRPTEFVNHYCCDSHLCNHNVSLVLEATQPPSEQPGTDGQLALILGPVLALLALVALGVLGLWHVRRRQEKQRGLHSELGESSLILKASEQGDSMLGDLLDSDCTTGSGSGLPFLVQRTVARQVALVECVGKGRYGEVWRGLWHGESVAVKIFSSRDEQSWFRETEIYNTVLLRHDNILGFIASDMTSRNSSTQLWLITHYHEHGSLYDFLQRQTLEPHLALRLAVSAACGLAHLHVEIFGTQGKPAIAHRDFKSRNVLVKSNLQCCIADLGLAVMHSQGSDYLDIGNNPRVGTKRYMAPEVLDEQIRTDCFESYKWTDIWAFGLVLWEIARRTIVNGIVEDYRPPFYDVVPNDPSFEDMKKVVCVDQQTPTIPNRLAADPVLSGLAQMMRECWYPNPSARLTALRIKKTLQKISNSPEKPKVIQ
Mitogen-activated protein kinase kinase kinase 9 (Homo sapiens), sequence (P80192 whole entry, looked up): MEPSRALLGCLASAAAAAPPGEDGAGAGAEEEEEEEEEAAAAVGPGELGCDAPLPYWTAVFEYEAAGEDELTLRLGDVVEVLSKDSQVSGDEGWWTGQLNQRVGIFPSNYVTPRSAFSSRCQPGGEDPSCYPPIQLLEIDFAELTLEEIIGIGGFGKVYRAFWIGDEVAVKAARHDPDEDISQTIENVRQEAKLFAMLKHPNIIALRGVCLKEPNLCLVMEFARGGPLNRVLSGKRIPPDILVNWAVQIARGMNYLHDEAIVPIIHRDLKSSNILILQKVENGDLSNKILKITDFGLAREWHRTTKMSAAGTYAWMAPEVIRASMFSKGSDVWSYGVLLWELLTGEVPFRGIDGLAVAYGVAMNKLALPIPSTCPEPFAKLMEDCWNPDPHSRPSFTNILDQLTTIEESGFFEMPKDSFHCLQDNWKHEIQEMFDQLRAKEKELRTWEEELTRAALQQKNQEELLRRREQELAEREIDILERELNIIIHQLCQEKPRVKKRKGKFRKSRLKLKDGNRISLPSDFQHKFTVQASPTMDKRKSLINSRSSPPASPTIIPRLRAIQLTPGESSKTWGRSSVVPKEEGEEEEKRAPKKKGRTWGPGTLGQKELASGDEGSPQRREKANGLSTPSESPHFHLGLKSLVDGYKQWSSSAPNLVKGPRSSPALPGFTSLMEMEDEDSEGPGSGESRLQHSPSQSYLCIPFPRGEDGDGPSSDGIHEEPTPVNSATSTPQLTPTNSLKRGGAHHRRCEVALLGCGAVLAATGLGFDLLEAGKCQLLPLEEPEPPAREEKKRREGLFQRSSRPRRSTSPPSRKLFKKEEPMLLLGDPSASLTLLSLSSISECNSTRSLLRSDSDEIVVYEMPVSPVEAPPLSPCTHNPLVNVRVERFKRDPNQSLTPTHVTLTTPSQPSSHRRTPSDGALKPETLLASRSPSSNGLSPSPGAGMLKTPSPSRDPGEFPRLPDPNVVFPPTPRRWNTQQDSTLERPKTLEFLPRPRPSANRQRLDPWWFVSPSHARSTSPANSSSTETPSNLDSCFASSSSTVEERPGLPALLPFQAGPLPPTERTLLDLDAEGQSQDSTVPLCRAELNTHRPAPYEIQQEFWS
Serine/threonine-protein kinase B-raf (Homo sapiens), sequence (P15056 whole entry): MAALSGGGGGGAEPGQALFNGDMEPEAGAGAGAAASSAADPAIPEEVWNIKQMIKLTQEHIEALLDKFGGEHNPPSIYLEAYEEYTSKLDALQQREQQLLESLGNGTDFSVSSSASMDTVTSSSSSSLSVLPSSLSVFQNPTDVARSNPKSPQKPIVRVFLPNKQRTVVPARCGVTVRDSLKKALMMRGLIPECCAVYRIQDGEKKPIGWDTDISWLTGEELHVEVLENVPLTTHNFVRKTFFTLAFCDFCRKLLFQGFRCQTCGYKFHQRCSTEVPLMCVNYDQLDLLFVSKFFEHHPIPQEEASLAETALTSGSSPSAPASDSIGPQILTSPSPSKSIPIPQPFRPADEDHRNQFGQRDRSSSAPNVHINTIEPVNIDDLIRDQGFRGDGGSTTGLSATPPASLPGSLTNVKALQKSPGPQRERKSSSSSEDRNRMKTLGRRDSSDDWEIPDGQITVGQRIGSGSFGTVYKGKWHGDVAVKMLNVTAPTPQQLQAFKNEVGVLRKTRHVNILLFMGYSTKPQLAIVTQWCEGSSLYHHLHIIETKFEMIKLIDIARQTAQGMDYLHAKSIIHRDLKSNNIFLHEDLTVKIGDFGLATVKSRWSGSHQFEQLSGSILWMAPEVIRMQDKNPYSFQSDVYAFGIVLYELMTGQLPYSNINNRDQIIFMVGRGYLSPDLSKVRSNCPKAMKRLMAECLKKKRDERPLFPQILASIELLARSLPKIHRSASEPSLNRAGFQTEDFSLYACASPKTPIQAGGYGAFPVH

Turning to `C[C@@]1(C(=O)Nc2ccc(F)nc2)CCCN1c1nc(Nc2cc(C3CC3)n[nH]2)c2cccn2n1`, the inhibition is 7.49% in [1]; -3.9% in experiment [2]; -6.63% in experiment [3]; 2.63% in experiment [4]; -0.32% in experiment [5].

For `C[C@]1(O)C[C@@H](c2nc(-c3ccc4ccc(-c5ccccc5)nc4c3)c3c(N)nccn32)C1`, the inhibition in experiment [6] is 1.51%; in [7] it was 2.47%; in experiment [8] it was -2.96%; in experiment [9], -6.22%; in experiment [10] it was -7.84%; in experiment [11] it was 1.98%.
